Experimental data published in patent publication US6090786A, “Serine proteases, their activity and their synthetic inhibitors” (priority 1994, dated 2000).
Where a name gives a salt, the structure may show the parent alone. Read-outs that look alike come from different tables or passages of the source. No end group written: not given here.

Tests used:
DPPIV [1] = target: T1, DPPIV (Homo sapiens, UniProt P27487); assay: biochemical; assay type: biochemical
T1 construct: from tissue; host or cells: prostasomes from human seminal plasma, purified on immobilized adenosine deaminase
Description: (§1) All enzymatic reactions were carried out in 50 mM Tris.HCl buffer pH 8.3 at 37° C. with Gly-Pro-4-Me-2-naphtylamine.HCl as substrate. One activity unit is defined as the amount of enzyme which catalyzes the conversion of 1 micromole of substrate per minute at 37° C. All experiments were carried out with the same stock solution of DPPIV containing 1.8 units/ml. The enzyme was diluted (usually 1/200 or 1/500) in reaction buffer immediately before the experiment to a suitable concentration so as not to consume more that 10% of the substrate during the incubation period.
The remaining activity was determined by adding 5 microliter of a 1 mM solution of Gly-Pro-4-Me-2-naphtylamine.HCl. The reaction mixture containing enzyme, substrate and inhibitor was incubated for 20 min at 37° C. The reaction was stopped by addition of 0.5 ml 100 mM citrate pH 4.0. The fluorescence of the sample was measured within 2 h after quenching. The measurements were done in duplicate and corrected for background fluorescence using a blanc with exactly the same composition except that the citrate solution was added before the substrate.

[2] = Functional stability of DPPIV inhibitors in human citrated plasma; assay type: in vitro ADME; details: 37° C.
Description: (§2) To determine the functional stability of the inhibitors in the reaction medium, a 10 mM stock solution in DMSO was diluted 50-fold in 50 mM TRIS buffer pH 8.3 and incubated at 37° C. To determine the functional stability in plasma, a 50 mM stock solution in DMSO was diluted 50-fold in fresh or freshly frozen citrated plasma from a healthy donor and incubated at 37° C. At specific time intervals an aliquot was withdrawn, added to an equal volume of DPPIV diluted in buffer or to an equal volume of plasma and the kinetics of inactivation were determined as described under b). The reduction in observed pseudo-first order rate constant is a measure for the amount of functional inhibitor lost during the incubation and allowed to estimate the half-life of the inhibitors in buffer and plasma. The following table lists the results.

[3] = Functional stability of DPPIV inhibitors in the reaction medium (buffer); assay type: physicochemical; details: 50 mM TRIS buffer pH 8.3, 37° C.
Description: as §2

DPPIV [4] = target: T1, DPPIV; assay: Stability of the inhibitor-DPPIV adduct; assay type: biochemical; details: DPPIV incubated with 0.5 mM inhibitor 1 hour, excess removed by gel filtration
Description: The phosphorylated enzyme is expected to hydrolyze slowly by action of solvent or nucleophilic groups on the enzyme.
The stability of the adduct was determined as follows. […] Excess inhibitor was removed by gel filtration on a PD 10 column (Pharmacia Biotech, Uppsala, Sweden) previously equilibrated with 50 mM Tris.HCl buffer, pH 8.3.

DPPIV [5] = target: T1, DPPIV; assay type: biochemical; details: inhibitor 0.1 or 0.5 mM, 37° C.; k+ = kobs/[I]o
Description: as §1
The kinetics of inactivation were measured by adding an appropriate concentration of inhibitor (0.1 or 0.5 mM) to 0.5 ml of enzyme in reaction buffer at 37° C. and determining the activity at various time points after mixing. To achieve this, 25 microliter samples were withdrawn and diluted […] in 2 mM Gly-Pro-4-Me-2-naphthylamine.HCl. The reaction was quenched with citrate after 10 to 15 min and the fluorescence was determined. The dilution in an excess of substrate reduced the velocity of inhibitor binding by a factor of 20. The decrease in fluorescence with time was fitted with the equation of a monoexponential decay yielding the pseudo-first order rate constant for binding (kobs) in the exponent. The second order rate constant (k+) was calculated as follows: k+ =kobs /[I]o where [I]o is the concentration of inhibitor in the incubation mixture.

[6] = target: T2, purified prolyl oligopeptidase (Homo sapiens, UniProt P48147); assay: biochemical
T2 construct: from tissue; host or cells: human blood cells: platelets or mononuclear cells, not specified
T2 sequence (P48147 1-710): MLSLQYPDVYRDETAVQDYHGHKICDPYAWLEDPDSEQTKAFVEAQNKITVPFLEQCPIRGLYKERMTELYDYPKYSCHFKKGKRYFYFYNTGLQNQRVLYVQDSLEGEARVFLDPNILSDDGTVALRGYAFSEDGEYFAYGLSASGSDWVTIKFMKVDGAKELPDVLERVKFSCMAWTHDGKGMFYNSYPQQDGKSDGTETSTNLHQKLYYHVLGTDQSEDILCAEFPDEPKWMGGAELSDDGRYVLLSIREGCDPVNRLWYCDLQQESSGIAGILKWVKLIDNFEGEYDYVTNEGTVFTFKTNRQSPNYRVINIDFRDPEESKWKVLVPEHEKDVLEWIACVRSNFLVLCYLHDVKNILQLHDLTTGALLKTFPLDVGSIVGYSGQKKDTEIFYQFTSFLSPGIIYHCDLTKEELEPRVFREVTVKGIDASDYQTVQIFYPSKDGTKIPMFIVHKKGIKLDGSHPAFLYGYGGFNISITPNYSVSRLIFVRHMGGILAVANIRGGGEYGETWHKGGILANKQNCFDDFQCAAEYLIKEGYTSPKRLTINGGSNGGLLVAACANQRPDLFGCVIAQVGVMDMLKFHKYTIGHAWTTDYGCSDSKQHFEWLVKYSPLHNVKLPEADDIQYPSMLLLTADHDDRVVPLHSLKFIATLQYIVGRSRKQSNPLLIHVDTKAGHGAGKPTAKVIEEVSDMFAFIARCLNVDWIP
Description: (§3) The remaining activity was determined by adding 5 μl substrate (Z-Gly-Pro-AMC, 5.6 mM) and measurement of the fluorescence at λex 370 nm, λem 440 nm after a further 20 min incubation at 37° C. The inhibitors were dissolved in methanol and control experiments were performed to correct for the presence of the solvents used. The IC50 value was derived from a plot, joining the residual activity and the dosis of the respective compounds (at least eight concentrations tested). The Ki values were derived from a direct linear plot (Dixon-plot). The measurements were performed in triplicate and only those lines having a correlation coefficient of at least 0.95 were used for determination of the Ki value.
Several peptides (cfr. table) were incubated with purified prolyl oligopeptidase. The compounds were dissolved in H2 O. The IC50 value was determined as previously described apart from the preincubation which was deleted. […]

[7] = target: T3, purified human platelet prolyl oligopeptidase (Homo sapiens, UniProt P48147); assay: In vitro inhibition of PEP; assay type: biochemical; details: for IC50: 20 min preincubation at 37° C., substrate Z-Gly-Pro-AMC; for Ki: Dixon-plot
T3 construct: purified human platelet prolyl oligopeptidase; from tissue; host or cells: human thrombocytes (platelets)
T3 sequence (P48147 1-710): T2 sequence (P48147 1-710)
Description: as §3

[8] = 1 hour preincubation at room temperature, substrate Gly-Pro-4-Me-2-naphtylamine.HCl, Tris.HCl pH 8.3, 37° C., inhibitory diastereoisomer unless marked *, read-out: IC50
[9] = peptides dissolved in H2O, no preincubation, read-out: IC50

T1 sequence (P27487 whole entry): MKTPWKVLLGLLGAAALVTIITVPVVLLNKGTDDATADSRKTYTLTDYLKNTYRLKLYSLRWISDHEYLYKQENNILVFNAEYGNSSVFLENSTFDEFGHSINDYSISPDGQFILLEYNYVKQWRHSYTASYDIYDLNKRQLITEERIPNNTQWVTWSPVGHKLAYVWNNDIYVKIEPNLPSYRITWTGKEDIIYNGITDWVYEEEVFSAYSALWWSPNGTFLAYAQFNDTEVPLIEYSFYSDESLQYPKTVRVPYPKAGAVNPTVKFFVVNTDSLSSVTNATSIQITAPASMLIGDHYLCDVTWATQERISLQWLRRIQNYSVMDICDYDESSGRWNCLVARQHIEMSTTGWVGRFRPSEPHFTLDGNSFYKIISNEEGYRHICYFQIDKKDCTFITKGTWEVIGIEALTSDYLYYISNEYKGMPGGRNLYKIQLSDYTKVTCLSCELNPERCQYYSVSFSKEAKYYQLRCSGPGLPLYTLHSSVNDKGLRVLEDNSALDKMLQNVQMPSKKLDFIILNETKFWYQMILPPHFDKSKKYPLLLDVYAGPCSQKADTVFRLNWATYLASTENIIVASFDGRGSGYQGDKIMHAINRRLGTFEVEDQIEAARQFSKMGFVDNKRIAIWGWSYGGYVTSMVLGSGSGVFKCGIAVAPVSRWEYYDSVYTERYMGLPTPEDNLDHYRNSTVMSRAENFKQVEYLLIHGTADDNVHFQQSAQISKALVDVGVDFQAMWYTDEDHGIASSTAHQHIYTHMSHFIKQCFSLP

CC[C@H](C)[C@H](N)C(=O)N1CCC(F)C1.O=C(O)C(F)(F)F (mixture of isomers) [Ile-3-Fluoro-pyrrolidine, 1-(L-Isoleucyl)-3(R,S)-fluoropyrrolidine trifluoroacetate]
inhibitory activity on DPPIV (in words) (DPPIV [1]): particularly active inhibitor

Cl.Cl.N=C(N)NCCC[C@H](N)C(=O)N1CCCC1P(=O)(Oc1ccccc1)Oc1ccccc1 (stereo partly drawn) [(S)-Arg-(S,R)-Pro^P (OPh)2, Diphenyl (S,R)-1-[(S)-arginyl]pyrrolidine-2-phosphonate dihydrochloride]
t1/2 in plasma [2]: 114 ± 12 min
t1/2 in buffer [3]: 2.6 ± 0.3 h

CC[C@H](C)[C@H](N)C(=O)N1CCC[C@H]1P(=O)(Oc1ccccc1)Oc1ccccc1.Cl [(S)-Ile-(R)-Pro^P (OPh)2, Diphenyl (R)-1-[(S)-isoleucinyl]pyrrolidine-2-phosphonate hydochloride]
t1/2 in plasma [2]: 84 ± 54 min
t1/2 in buffer [3]: 10 ± 5 h

Cl.N[C@@H](Cc1ccccc1)C(=O)N1CCC[C@@H]1P(=O)(Oc1ccccc1)Oc1ccccc1 [AB22, Diphenyl (S)-1-[(S)-phenaylalyl]pyrrolidine-2-phosphonate hydrochloride]
inhibitory activity on DPPIV (in words) (DPPIV [1]): inactive

C[C@H](N)C(=O)N1CCCC1P(=O)(Oc1ccccc1)Oc1ccccc1.Cl (stereo partly drawn) [Ala-Pro-(OPh)2, Diphenyl (S,R)-1-[(S)-alanyl]pyrrolidine-2-phosphonate hydrochloride]
IC50 (DPPIV [1]; [8]): 2000 µM
stability of the adduct at room temperature (DPPIV [4]): > 4 weeks
K+ (second order rate constant) (DPPIV [5]): 0.7 M⁻¹ s⁻¹

CC[C@H](C)[C@H](NC(=O)[C@H](Cc1ccc(O)cc1)NC(=O)[C@@H](NC(=O)[C@H](CCCNC(=N)N)NC(=O)[C@@H](N)CC(=O)O)C(C)C)C(=O)N[C@@H](Cc1c[nH]cn1)C(=O)N1CCC[C@H]1C(=O)O [Angiotensin (1-7)]
IC50 [6, 9]: 750 µM

CC[C@H](C)[C@H](NC(=O)[C@H](Cc1ccc(O)cc1)NC(=O)[C@@H](NC(=O)[C@H](CCCNC(=N)N)NC(=O)[C@@H](N)CC(=O)O)C(C)C)C(=O)N[C@@H](Cc1cnc[nH]1)C(=O)N1CCC[C@H]1C(=O)N[C@@H](Cc1ccccc1)C(=O)O [Angiotensin II]
IC50 [6, 9]: 25 µM

N[C@@H](CC1CCCCC1)C(=O)N1CCC[C@H]1P(=O)(Oc1ccccc1)Oc1ccccc1 [Cyclohexylalanine-Pro^P -(OPh)2, Diphenyl (R)-1-[(S)-cyclohexylalanyl]pyrrolidine-2-phosphonate hydrochloride]
t1/2 in plasma [2]: 18 ± 6 min
t1/2 in buffer [3]: 4.5 ± 0.8 h

CC[C@H](C)[C@H](N)C(=O)N1CCCC1P(=O)(Oc1ccccc1)Oc1ccccc1.Cl (stereo partly drawn) [Ile-Pro-^P -(OPh)2, Diphenyl (S,R)-1-[(S)-isoleucinyl]pyrrolidine-2-phosphonate hydochloride]
IC50 (DPPIV [1]; [8]): 350 µM
stability of the adduct at room temperature (DPPIV [4]): > 3 weeks
K+ (second order rate constant) (DPPIV [5]): 2.3 M⁻¹ s⁻¹

CC(C)(C)Oc1ccc(C[C@H](N)C(=O)N2CCCC2P(=O)(Oc2ccccc2)Oc2ccccc2)cc1 (stereo partly drawn) [O-tbutyl-Tyr-Pro^P -(OPh)2]
IC50 (DPPIV [1]; [8]): 1000 µM
K+ (second order rate constant) (DPPIV [5]): 0.5 M⁻¹ s⁻¹

Cl.N[C@@H](Cc1ccccc1)C(=O)N1CCC[C@H]1P(=O)(Oc1ccccc1)Oc1ccccc1 [Phe-Pro^P -(OPh)2, Diphenyl (R)-1-[(S)-phenylalanyl]pyrrolidine-2-phosphonate hydrochloride]
IC50 (DPPIV [1]): 70 µM
stability of the adduct at room temperature (DPPIV [4]): > 3 weeks
t1/2 in plasma [2]: 42 ± 6 min
t1/2 in buffer [3]: 6 ± 1 h

CSCC[C@H](NC(=O)[C@H](CC(C)C)NC(=O)CNC(=O)[C@H](Cc1ccccc1)NC(=O)[C@H](Cc1ccccc1)NC(=O)[C@H](CCC(N)=O)NC(=O)[C@H](CCC(N)=O)NC(=O)[C@@H]1CCCN1C(=O)[C@H](CCCCN)NC(=O)[C@@H]1CCCN1C(=O)[C@@H](N)CCCN=C(N)N)C(N)=O [Substance P]
IC50 [6]: 163 µM

O=C(NC(Cc1ccccc1)C(=O)N1CCC1)OCc1ccccc1 (stereo not drawn) [Z-Phe-azetidine]
IC50 [7]: 30000 nM

O=C([C@@H]1CCCN1C(=O)OCc1ccccc1)N1CCC(F)C1 (stereo partly drawn) [Z-Pro-3-fluoropyrrolidine, 1-[N-Benzyloxycarbonyl-L-propyl]-3(R,S)-fluoropyrrolidine]
inhibitory activity on PEP (in words) [7]: particularly active inhibitor
IC50 [7]: 450 nM
Ki [7]: 100 nM

O=C(C1CCCN1C(=O)OCc1ccccc1)N1CCC1 (stereo not drawn) [Z-Pro-azetidine]
IC50 [7]: 3000 nM
Ki [7]: 2500 nM

O=C(C1CSCN1C(=O)OCc1ccccc1)N1CCC1 (stereo not drawn) [Z-thiopro-azetidine]
IC50 [7]: 1800 nM
Ki [7]: 5000 nM

Cl.N[C@@H](Cc1ccc(F)cc1)C(=O)N1CCC[C@H]1P(=O)(Oc1ccccc1)Oc1ccccc1 [pF-Phe-Pro^P -(OPh)2, Diphenyl (R)-1-[(S)-p-fluorophenylalanyl]pyrrolidine-2-phosphonate hydrochloride]
IC50 (DPPIV [1]): 100 µM
stability of the adduct at room temperature (DPPIV [4]): > 4 weeks
t1/2 in plasma [2]: 42 ± 6 min
t1/2 in buffer [3]: 8.9 ± 0.1 h

RPPGFSPFR [Bradykinin]
IC50 [6]: 7 µM
